# According to patent US10398659B2, “Adjuvant chemotherapy for anaplastic gliomas” (OKLAHOMA MEDICAL RESEARCH FOUNDATION, priority 2008, dated 2019):
# Where a name gives a salt, the structure may show the parent alone.
# Tests used:
# iNOS = iNOS protein expression in C6 cells; type: cell-based, rat; conditions: 100 μM
# Description: (§1) The inventors then examined iNOS and VEGF protein expressions in the 2,4-ds-PBN treated C6 cells.
# [1] = monitoring of adverse effects and toxicity in treated glioma rats; type: in vivo
# Description: . n=15 for 2,4-ds-PBN-treated rats, and n=5 for non-treated rats) in 2,4-ds-PBN-treated rats (see FIG. 5). Rats treated with 2,4-ds-PBN achieved >80% survival over the 40 day study period (n=15), compared to non-treated rats (n=5). […] Gross signs of adverse effects that were monitored included weight loss, ruffling of fur, and behavioural and postural changes.
# solubility in water = type: physicochemical; conditions: free acid
# Description: The product so formed is the free acid and is characterized by a molecular weight of […]. It is a white powdery material which decomposes upon heating. […]; 8.836 ppm (d, 8.4 Hz); 8.839 ppm (d, 1.7 Hz); 8.774 ppm (s).
# [2] = system: pro-caspase 3 and pro-caspase 9; assay: Western blots of apoptotic factors in C6 cells; type: cell-based, rat; conditions: increasing concentrations
# Procedure: FIG. 6: Western blots of rat C6 cells with increasing concentrations of 2,4-ds-PBN. Increasing levels of apoptotic factors pro-caspase 3 and pro-caspase 9 are shown, relative to actin.
# (§2) FIG. 4 represents a series of MR images taken over a period of 25 days for an untreated control group and representative data (best-case, average effect, and worst-case) for 2,4-ds-PBN-treated rats (via drinking water administration at a dose of 17 mg/kg/day). […] Rats treated with 2,4-ds-PBN achieved >80% survival over the 40 day study period (n=15), compared to non-treated rats (n=5). […] Gross signs of adverse effects that were monitored included weight loss, ruffling of fur, and behavioural and postural changes.
# C6 cells = assay: cell proliferation; type: cell-based, rat; conditions: concentration dependence
# VEGF = VEGF protein expression in C6 cells; type: cell-based, rat; conditions: 5 mM
# Description: as §1
# [3] = in vivo; cited from earlier work
# C6 glioma = assay: intracerebral C6 rat glioma cell implantation model, MR imaging; type: in vivo
# Procedure: The inventors used an intracerebral C6 rat glioma cell implantation method, widely accepted by the glioma research field, as a good model for gliomas. To induce glioma in rats, C6 rat glioma cells (10^6 cells in 10 μL were injected into the cerebral cortex of male Fischer 344 rats. Fifteen days later, 2,4-ds-PBN was orally administered through drinking water (0.015%, 17.5 mg/kg). The efficacy of 2,4-ds-PBN was assessed with the tumor growth patterns and growth rates by using magnetic resonance (MR) imaging (T1/T2-weighted imaging) methods over the course of a month.
# as §2
# [4] = rats; cited from earlier work
# C6 gliomas = conditions: cited from earlier work
compound,measurement,setting,value
"CC(C)(C)[N+]([O-])=Cc1ccc(S(=O)(=O)O)cc1S(=O)(=O)O [2,4-ds-PBN, 2,4-disulfonyl phenyl tert-butyl nitrone]",iNOS expression decrease,iNOS,approximately 75%
same,toxicity effects,"[1]; rat, in vivo",No toxicity effects were detected
same,side effects during the treatment period,"[1]; weight loss, ruffling of fur, behavioural and postural changes monitored",No side effects were observed
same,solubility,solubility in water,> 1000 mg/mL
same,"apoptotic effect (pro-caspase 3, pro-caspase 9 levels relative to actin)",[2],pro-apoptotic as concentration increases
same,inhibition of cell proliferation,C6 cells,little effect
same,VEGF expression reduction,VEGF,50%
same,blood-brain-barrier penetration,[3],cannot easily pass through the BBB
same,C6 glioma tumor volumes decrease,"C6 glioma; 17 mg/kg/day via drinking water from day 15 after cell implantation, vs non-treated rats, n=15 vs n=5",> 15 fold
same,survival over the 40 day study period,"C6 glioma; 2,4-ds-PBN in drinking water, n=15, compared to non-treated rats (n=5)",> 80%
"O=NN(CCCl)C(=O)NC1CCCCC1 [Lomustine, 1-(2-chloroethyl)-3-cyclohexyl-1-nitrosourea]",blood-brain-barrier penetration,[3],crosses the blood brain barrier
"CC(C)(C)[N+]([O-])=Cc1ccccc1 [PBN, phenyl N-tert-butyl nitrone]",half-life,[4],about 132 minutes
same,iNOS expression decrease,iNOS,5%
same,inhibition of cell proliferation,C6 cells,significantly inhibited cell proliferation in a concentration dependent manner
same,blood-brain-barrier penetration,[3],easily penetrate the BBB
same,"effect on tumor growth, pretreatment","C6 gliomas; PBN administration as a pretreatment, rat C6 glioma",decrease in growth rate and tumor regression
same,"effect on tumor regression, post-treatment","C6 gliomas; post-treatment of PBN, compared with pre-treatment",little effect for tumor regression
CC(C)(C)/[N+]([O-])=C/c1ccccc1S(=O)(=O)O [S-PBN],inhibition of cell proliferation,C6 cells,little effect
"CC[C@]1(O)C[C@H]2CN(CCc3c([nH]c4ccccc34)[C@@](C(=O)OC)(c3cc4c(cc3OC)N(C=O)[C@H]3[C@@](O)(C(=O)OC)[C@H](OC(C)=O)[C@]5(CC)C=CCN6CC[C@]43[C@@H]65)C2)C1 [Vincristine, vincaleukoblastine, a 22-oxo-, sulfate (1:1) (salt)]",blood-brain-barrier penetration,[3],does not appear to cross the blood brain barrier
